Results published in BindingDB's records for doi:10.1021/acs.jmedchem.6b00788 (University of Pittsburgh, 2017).
pIC50: −log10 of the molar value.

Experiment: Inhibition of TNFalpha-PLAP (unknown origin)

SMILES	pIC50
COc1cc(O)c2c(c1)/C=C/C[C@H](O)[C@H](O)C(=O)/C(F)=C\C[C@H](C)OC2=O	7.44
COc1cc(O)c2c(c1)/C=C/C[C@H](O)[C@H](O)C(=O)/C=C(/C)C[C@H](C)OC2=O	< 5.00
